US4226610A, “Herbicidal compounds, preparation thereof and herbicides containing the same” (Meiji Selka Kaisha, Ltd., priority 1978, dated 1980)

Legend:
cockspar grass = experiment: Experiment 1 foliar application to naturally growing weeds; assay type: in vivo, Echinochloa Crusgalli P. Beauv.; conditions: for Reproduction-inhibiting effect: 2 months
Method in brief: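 Read-outs were a 0–5 killing index at 21 days and a reproduction score from (-), no reproduction, to (+++), no suppression. Reproduction was read at 2 months for cockspar grass and 4 months for the other species, after foliar spraying at 150 liter per 10 are with 0.1% surfactant.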

yabugarashi = experiment: as above; assay type: in vivo, Cayratia japonica Houtt.; conditions: for Reproduction-inhibiting effect: 4 months
Method in brief: (§1)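 Naturally growing weeds receive a foliar spray of compound at prescribed concentrations, 150 liter per 10 are, containing 0.1% octylphenyl polyoxyethanol. Kill is rated 0 (no effect) to 5 (death) after 21 days. Regrowth is rated (-) to (+++) after 4 months, or 2 months for cockspar grass.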

hedge bindweed = experiment: as above; assay type: in vivo, Calystegis hederacea Wall.; conditions: 4 months
Method in brief: as §1

eulalia = experiment: Experiment 2 foliar application in Japanese cypress afforested land; assay type: in vivo, Miscanthus sinensis Andress.; parameters: key: 0 = no effect, 5 = death; conditions: after 3 months
Method in brief: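 Field foliar spray on shrubs in Japanese cypress afforested land at 150 liter per 10 are, with compounds at prescribed concentrations. Killing index scored from 0 (no effect) to 5 (death) at 30 days and 3 months. Plant heights ranged from about 50 to 100 cm.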

kiichigo = experiment: Experiment 3 foliar application to naturally growing shrubs; assay type: in vivo, Rubus palmatsu Thunb. forma coptophyllus Makino; conditions: for Reproduction-inhibiting: after 3 months
Method in brief: (§2)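 Naturally growing shrubs were sprayed on the foliage at 150 liter per 10 are. Plant kill was then scored from 0 to 5 at 1 and 3 months, and reproduction was graded − to +++ at 3 months.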

lace shrub = experiment: as above; assay type: in vivo, Stephanandra incisa Zabel
Method in brief: as §2

yamazakura = experiment: as above; assay type: in vivo, Prunus donarium Sieb. var. spontanae Makino; conditions: after 3 months
Method in brief: as §2

oak = experiment: as above; assay type: in vivo, Quercus serrata Thunb; conditions: after 3 months
Method in brief: as §2

omodaka = experiment: Experiment 6 spray on aquatic plants in concrete pots; assay type: in vivo, Sagittaria trifolia L.; conditions: for Reproduction-inhibiting effect: 3 months
From the text: (§3) The detail of the assessment made in the following Experiments of the invention was as follows:
(§4) Four months after treatment, evaluation was made for inhibition of reproduction expressed in terms of symbols ranging from (-) to (+++) where (-) means no reproduction, namely complete suppression of reproduction, (±) remarkable suppression of reproduction; (+) considerable suppression of reproduction; (++) medium supprestion of reproduction; and (+++) no suppression of reproduction.
(§5) A paddy field soil was packed in 50 cm. square concrete pots. omodaka (Sagittaria trifolia L.), urikawa (Sagittaria pygmaea Miq.), prog-bit (Hydrocharis dubia) and aginashi (Sagittaria Aginashi Makino) were transplanted; then water was poured onto the soil at 5 cm. depth.
(§6) Further, water hyacinth, greater-duckweed (Spirodela polyrhiza Schleid.) and duckweed (Lemna paucicostata Hegelm) were floated on the water.
(§7) After one month, the compounds of the invention diluted to the prescribed concentrations as indicated in Table 8 were sprayed in an amount of 100 liter per 10 are. As a surfactant, 0.1% of octylphenyl polyoxyethanol was added thereto.
(§8) The killing index (0, no effect; 5, death) after 21 days and 3 months and the reproduction-inhibiting effect (-, no reproduction; +++, maximum reproduction) after 3 months were determined.

urikawa = experiment: as above; assay type: in vivo, Sagittaria pygmaea Miguel; conditions: 3 months
From the text: as §3, §4, §5, §6, §7, §8

progbit = experiment: as above; assay type: in vivo, Hydrocharis dubia; conditions: 3 months
From the text: as §3, §4, §5, §6, §7, §8

hornwort = experiment: Experiment 7 application to water; assay type: in vivo, Ceratophyllum demersum L.; parameters: scale not given here
From the text: (§9) A black soil was packed in 50 cm. square concrete pots and water was poured there-onto at 50 cm. in depth. Hornwort (Ceratophyllum demersum L.), stonewort (Chara Braunii Gmel.) and salvinia (Salvinia natans All.) were transplanted and pond scum (Spirogira crassa Kutz) and diatoms (Bacillariophyta) were floated in the water.
(§10) Then, the compounds of the invention were applied dropwise onto the surface of the water so that the prescribed concentrations in the water are obtained as indicated in Table 9.

stonewort = experiment: Experiment 7 application to water; assay type: in vivo, Chara Braunii Gmel.; parameters: scale not given here
From the text: as §9, §10

salvinia = experiment: Experiment 7 application to water; assay type: in vivo, Salvinia natans Allioni; parameters: scale not given here
From the text: as §9, §10

pond scum = experiment: Experiment 7 application to water; assay type: in vivo, Spirogira crassa Kutz.; parameters: scale not given here
From the text: as §9, §10

diatoms = experiment: Experiment 7 application to water; assay type: in vivo, Bacillariophyta; parameters: scale not given here
From the text: as §9, §10

`CP(=O)(O)CC[C@H](N)C(=O)O` [L-AMPB choline, L-2-Amino-4-methylphosphino-butanoic acid choline] was tested, and the Reproduction-inhibiting effect (cockspar grass; 0.05%) was “±”, the Reproduction-inhibiting effect (cockspar grass; 0.1%) was “-” and the Reproduction-inhibiting effect (cockspar grass; 0.2%) was “-”. The Reproduction-inhibiting effect (yabugarashi; 0.05%) was “±”, the Reproduction-inhibiting effect (yabugarashi; 0.1%) was “-” and the Reproduction-inhibiting effect (yabugarashi; 0.2%) was “-”. For the same compound, the Reproduction-inhibiting effect (hedge bindweed; 0.05%) was “±”, the Reproduction-inhibiting effect (hedge bindweed; 0.1%) was “-” and the Reproduction-inhibiting effect (hedge bindweed; 0.2%) was “-”. For the same compound, the Killing index (eulalia; 0.063%) was 3.5, the Reproduction-inhibiting (kiichigo; 0.05%) was “-” and the Killing index (kiichigo; 0.05%, after 30 days) was 4.5. For the same compound, the Reproduction-inhibiting (kiichigo; 0.1%) was “-”, the Reproduction-inhibiting (kiichigo; 0.2%) was “-” and the Killing index (lace shrub; 0.05%, after 3 months) was 4.5. For the same compound, the Reproduction-inhibiting (lace shrub; 0.05%, after 3 months) was “±”, the Killing index (lace shrub; 0.05%, after 30 days) was 4.5 and the Reproduction-inhibiting (lace shrub; 0.1%, after 3 months) was “-”. For the same compound, the Reproduction-inhibiting (lace shrub; 0.2%, after 3 months) was “-”, the Reproduction-inhibiting (yamazakura; 0.05%) was “-” and the Reproduction-inhibiting (yamazakura; 0.1%) was “-”. For the same compound, the Reproduction-inhibiting (yamazakura; 0.2%) was “-”, the Reproduction-inhibiting (oak; 0.05%) was “-” and the Reproduction-inhibiting (oak; 0.1%) was “-”. The Reproduction-inhibiting (oak; 0.2%) was “-”, the Reproduction-inhibiting effect (omodaka; 0.05%) was “+” and the Reproduction-inhibiting effect (omodaka; 0.1%) was “-”. The Killing index (omodaka; 0.1%, 21 days) was 4.5, the Reproduction-inhibiting effect (omodaka; 0.2%) was “-” and the Reproduction-inhibiting effect (urikawa; 0.05%) was “+”. For the same compound, the Reproduction-inhibiting effect (urikawa; 0.1%) was “-”, the Reproduction-inhibiting effect (urikawa; 0.2%) was “-” and the Reproduction-inhibiting effect (progbit; 0.05%) was “+”. For the same compound, the Reproduction-inhibiting effect (progbit; 0.1%) was “-”, the Reproduction-inhibiting effect (progbit; 0.2%) was “-” and the controlling effect (hornwort; 1 ppm, 3 months) was 2. For the same compound, the controlling effect (hornwort; 1 ppm, 21 days) was 3, the controlling effect (hornwort; 3 ppm, 3 months) was 5 and the controlling effect (hornwort; 3 ppm, 21 days) was 5. It also gave a controlling effect (hornwort; 10 ppm, 3 months) of 5, a controlling effect (hornwort; 10 ppm, 21 days) of 5 and a controlling effect (stonewort; 1 ppm, 3 months) of 5. The controlling effect (stonewort; 1 ppm, 21 days) was 4, the controlling effect (stonewort; 3 ppm, 3 months) was 5 and the controlling effect (stonewort; 3 ppm, 21 days) was 5. The controlling effect (stonewort; 10 ppm, 3 months) was 5, the controlling effect (stonewort; 10 ppm, 21 days) was 5 and the controlling effect (salvinia; 1 ppm, 3 months) was 5. For the same compound, the controlling effect (salvinia; 1 ppm, 21 days) was 4, the controlling effect (salvinia; 3 ppm, 3 months) was 5 and the controlling effect (salvinia; 3 ppm, 21 days) was 5. It also gave a controlling effect (salvinia; 10 ppm, 3 months) of 5, a controlling effect (salvinia; 10 ppm, 21 days) of 5 and a controlling effect (pond scum; 1 ppm, 3 months) of 4. The controlling effect (pond scum; 1 ppm, 21 days) was 4, the controlling effect (pond scum; 3 ppm, 3 months) was 5 and the controlling effect (pond scum; 3 ppm, 21 days) was 5. The controlling effect (pond scum; 10 ppm, 3 months) was 5, the controlling effect (pond scum; 10 ppm, 21 days) was 5 and the controlling effect (diatoms; 1 ppm, 3 months) was 4. The controlling effect (diatoms; 1 ppm, 21 days) was 4, the controlling effect (diatoms; 3 ppm, 3 months) was 5 and the controlling effect (diatoms; 3 ppm, 21 days) was 5. For the same compound, the controlling effect (diatoms; 10 ppm, 3 months) was 5 and the controlling effect (diatoms; 10 ppm, 21 days) was 5.
With `C[C@H](NC(=O)[C@H](C)NC(=O)[C@@H](N)CCP(C)(=O)O)C(=O)O` [SF-1293 choline, (L-2-Amino-4-methylphosphinobutyryl)-L-alanyl-L-alanine choline] the Reproduction-inhibiting effect (cockspar grass; 0.05%) was “+”, the Reproduction-inhibiting effect (cockspar grass; 0.1%) was “±” and the “Killing index of Upperground parts” value (cockspar grass; 0.1%, 21 days) was 4.5. For the same compound, the Reproduction-inhibiting effect (cockspar grass; 0.2%) was “-”, the Reproduction-inhibiting effect (yabugarashi; 0.05%) was “++” and the “Killing index of Upperground parts” value (yabugarashi; 0.05%, 21 days) was 3.5. The Reproduction-inhibiting effect (yabugarashi; 0.1%) was “±”, the Reproduction-inhibiting effect (yabugarashi; 0.2%) was “-” and the Reproduction-inhibiting effect (hedge bindweed; 0.05%) was “+”. For the same compound, the Reproduction-inhibiting effect (hedge bindweed; 0.1%) was “±”, the Reproduction-inhibiting effect (hedge bindweed; 0.2%) was “-” and the Killing index (eulalia; 0.125%) was 4.5. The Reproduction-inhibiting (kiichigo; 0.05%) was “++”, the Reproduction-inhibiting (kiichigo; 0.1%) was “-” and the Reproduction-inhibiting (kiichigo; 0.2%) was “-”. For the same compound, the Reproduction-inhibiting (lace shrub; 0.05%, after 3 months) was “++”, the Reproduction-inhibiting (lace shrub; 0.1%, after 3 months) was “-” and the Reproduction-inhibiting (lace shrub; 0.2%, after 3 months) was “-”. The Reproduction-inhibiting (yamazakura; 0.05%) was “++”, the Reproduction-inhibiting (yamazakura; 0.1%) was “-” and the Reproduction-inhibiting (yamazakura; 0.2%) was “-”. The Reproduction-inhibiting (oak; 0.05%) was “++”, the Reproduction-inhibiting (oak; 0.1%) was “-” and the Reproduction-inhibiting (oak; 0.2%) was “-”. The Reproduction-inhibiting effect (omodaka; 0.05%) was “++”, the Reproduction-inhibiting effect (omodaka; 0.1%) was “±” and the Reproduction-inhibiting effect (omodaka; 0.2%) was “-”. The Reproduction-inhibiting effect (urikawa; 0.05%) was “++”, the Reproduction-inhibiting effect (urikawa; 0.1%) was “±” and the Reproduction-inhibiting effect (urikawa; 0.2%) was “-”. The Reproduction-inhibiting effect (progbit; 0.05%) was “++”, the Reproduction-inhibiting effect (progbit; 0.1%) was “±” and the Reproduction-inhibiting effect (progbit; 0.2%) was “-”. The controlling effect (hornwort; 1 ppm, 3 months) was 1, the controlling effect (hornwort; 1 ppm, 21 days) was 2 and the controlling effect (hornwort; 3 ppm, 3 months) was 5. The controlling effect (hornwort; 3 ppm, 21 days) was 4, the controlling effect (hornwort; 10 ppm, 3 months) was 5 and the controlling effect (hornwort; 10 ppm, 21 days) was 5. For the same compound, the controlling effect (stonewort; 1 ppm, 3 months) was 2, the controlling effect (stonewort; 1 ppm, 21 days) was 3 and the controlling effect (stonewort; 3 ppm, 3 months) was 5. The controlling effect (stonewort; 3 ppm, 21 days) was 4, the controlling effect (stonewort; 10 ppm, 3 months) was 5 and the controlling effect (stonewort; 10 ppm, 21 days) was 5. It also gave a controlling effect (salvinia; 1 ppm, 3 months) of 3, a controlling effect (salvinia; 1 ppm, 21 days) of 3.5 and a controlling effect (salvinia; 3 ppm, 3 months) of 5. The controlling effect (salvinia; 3 ppm, 21 days) was 4.5, the controlling effect (salvinia; 10 ppm, 3 months) was 5 and the controlling effect (salvinia; 10 ppm, 21 days) was 5. It also gave a controlling effect (pond scum; 1 ppm, 3 months) of 1, a controlling effect (pond scum; 1 ppm, 21 days) of 2 and a controlling effect (pond scum; 3 ppm, 3 months) of 5. The controlling effect (pond scum; 3 ppm, 21 days) was 3.5, the controlling effect (pond scum; 10 ppm, 3 months) was 5 and the controlling effect (pond scum; 10 ppm, 21 days) was 5. For the same compound, the controlling effect (diatoms; 1 ppm, 3 months) was 1, the controlling effect (diatoms; 1 ppm, 21 days) was 2 and the controlling effect (diatoms; 3 ppm, 3 months) was 5. It also gave a controlling effect (diatoms; 3 ppm, 21 days) of 3, a controlling effect (diatoms; 10 ppm, 3 months) of 5 and a controlling effect (diatoms; 10 ppm, 21 days) of 5.
